Results as given in PubChem BioAssay (NCI).
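All cell lines were grown in 96-well plates and treated with compound for 48 hours. GI50 marks 50% less growth. TGI is the concentration that stops growth completely.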

Tests used:
Assay in all cases: NCI tumour cell line growth inhibition, 48 h
SNB-19 CNS = tested on: SNB-19 CNS
A549 NSCLC = tested on: A549 NSCLC
K-562 leukemia = tested on: K-562 leukemia
HT29 colon = tested on: HT29 colon
SK-MEL-2 melanoma = tested on: SK-MEL-2 melanoma
SN12C renal = tested on: SN12C renal
HOP-62 NSCLC = tested on: HOP-62 NSCLC
U251 CNS = tested on: U251 CNS
SK-MEL-5 melanoma = tested on: SK-MEL-5 melanoma
CCRF-CEM leukemia = tested on: CCRF-CEM leukemia

| SMILES | TGI (SNB-19 CNS) [µM] | TGI (A549 NSCLC) [µM] | TGI (K-562 leukemia) [µM] | TGI (HT29 colon) [µM] | TGI (SK-MEL-2 melanoma) [µM] | TGI (SN12C renal) [µM] | TGI (HOP-62 NSCLC) [µM] | TGI (U251 CNS) [µM] | TGI (SK-MEL-5 melanoma) [µM] | TGI (CCRF-CEM leukemia) [µM] | GI50 (SNB-19 CNS) [µM] | GI50 (A549 NSCLC) [µM] | GI50 (HT29 colon) [µM] | GI50 (SK-MEL-2 melanoma) [µM] | GI50 (SN12C renal) [µM] | GI50 (CCRF-CEM leukemia) [µM] | GI50 (HOP-62 NSCLC) [µM] | GI50 (U251 CNS) [µM] | GI50 (SK-MEL-5 melanoma) [µM] | GI50 (K-562 leukemia) [µM] |
| --- | --- | --- | --- | --- | --- | --- | --- | --- | --- | --- | --- | --- | --- | --- | --- | --- | --- | --- | --- | --- |
| COc1ccc(C(=O)NCCN(C)C)c2nc3ccccc3nc12 | > 53 | > 100 | 5.72 | 15.1 | 11.8 | 80.1 | 9.06 | 40.9 | > 36.6 |  |  |  |  |  |  |  |  |  |  |  |
| CSc1nnc(COc2ccc(Cl)cc2)o1 | > 100 | > 100 |  | > 100 |  | > 100 | > 100 | > 100 | > 100 |  |  |  |  |  |  |  |  |  |  |  |
| C[N+](C)(C)CC1CCCCC1O (configuration not stated) |  |  |  | > 100 | > 100 | > 100 | > 100 | > 100 | > 100 | > 100 |  |  |  |  |  |  |  |  |  |  |
| C=C1C(=O)O[C@H]2[C@H]1CC/C(COC(=O)NCC(C)c1ccc(CC(C)C)cc1)=C\CC[C@@]1(C)O[C@@H]21 (some centres not stated) | 7.95 | 11.8 |  | 2.52 | 8.48 | 4.14 | 10.5 | 8.7 | 8.07 | 3.61 | 3.82 | 6.46 | 1.03 | 3.86 | 1.06 | 0.644 | 5.29 | 4.32 | 3.97 |  |
| O=C(N/N=C/c1cccc(F)c1)c1ccncc1 | > 100 | > 100 |  | > 100 | > 100 | > 100 | > 100 | > 100 | > 100 | > 100 |  |  |  |  |  |  |  |  |  |  |
| O=S(=O)(NCCCNc1nccc(-c2c(-c3ccc(F)cc3)nc3sccn23)n1)c1ccc2ccccc2c1 | > 100 | > 100 |  | 7.58 | > 100 | > 100 | > 100 | > 100 | > 100 | > 100 | 8.53 | 4.43 | 2.4 | 6.63 | 4.69 | 3.13 | > 100 | 4.87 | 4.17 |  |
| Cc1ccccc1NC(=O)C1C(=O)N(c2ccccc2C)C(=O)/C1=N\NC(N)=S (configuration not stated) | > 100 | > 100 | > 100 | > 100 | > 100 | > 100 |  | > 100 |  | > 100 |  |  |  |  |  |  |  |  |  |  |
| CCNC(=O)COc1ccc(Cl)cc1Cl | > 100 | > 100 | > 100 | > 100 | > 100 | > 100 | > 100 | > 100 | > 100 |  |  |  |  |  |  |  |  |  |  |  |
| CCCCn1c(-c2ccc(C(=O)O/N=C(\N)c3ccc4c(c3)OCO4)cc2)nc(-c2ccccc2)c1-c1ccccc1 | 43.6 | 5.22 |  | > 100 | > 100 | 3.7 | 4.03 | 5.24 | 4.54 | 3.4 | 3.04 | 1.92 | 3.33 | 4.19 | 1.8 | 1.05 | 1.82 | 2 | 1.98 |  |
| CC(C)(Oc1ccc(/C=C/C(=O)c2ccc(Cl)cc2)cc1)C(=O)Nc1c(Cl)cccc1Cl | > 100 | > 100 | > 100 | 28 | > 100 | 34.8 | > 100 | 26.7 | 37 |  |  |  |  |  |  |  |  |  |  |  |
| c1ccc2[nH]c(-c3ccc(Nc4nc(N5CCCCC5)nc(N5CCOCC5)n4)cc3)nc2c1 | 81.9 | 13.2 |  | 5.56 | 5.36 | 53.2 | 4.32 | 10 | 3.3 | > 100 | 3.73 | 3.27 | 2.44 | 2.34 | 5.4 | 3.25 | 1.92 | 2.18 | 1.78 |  |
| COc1ccc(/C(=N\NC(=S)NN)C(c2ccc(OC)cc2)C2C(=O)Oc3ccccc32)cc1 (configuration not stated) |  | > 100 | > 100 | > 100 | > 100 | > 100 |  |  | > 100 | > 100 |  | > 100 | > 100 | > 100 | > 100 |  |  |  | > 100 | > 100 |
| N#Cc1ccc(NC(=O)C(CC(=O)OCc2ccccc2)NC(=O)OCc2ccccc2)cc1 (configuration not stated) | > 100 | > 100 |  | > 100 | > 100 | > 100 |  | > 100 | > 100 | > 100 | > 100 | > 100 | > 100 |  | > 100 | > 100 |  | > 100 |  |  |
| Cn1c2c(c3ccccc31)CCN(CCN1CCN(c3cccc(Cl)c3)CC1)C2=O |  | > 100 | > 100 | 41 |  | > 100 | > 100 | > 100 | 62.6 | > 100 |  |  |  |  |  |  |  |  |  |  |
| CCOC(=O)c1cc2c3c(c(O)c(OC)c2s1)N(C(=O)c1cc2c4c(c(O)c(OC)c2s1)N(C(C)=O)CC4)CC3 | > 100 | > 100 | > 100 | > 100 |  | > 100 | > 100 | > 100 | > 100 | > 100 |  |  |  |  |  |  |  |  |  |  |
| COc1ccc(C(=O)c2ccc([As]=O)cc2)cc1 (configuration not stated) | 0.236 | 0.348 |  | 0.236 | 0.373 | 0.199 | 0.183 | 0.0615 | 0.288 | 0.171 | 0.0932 | 0.158 | 0.0489 | 0.173 | 0.0418 | 0.0296 | 0.0412 | 0.0218 | 0.14 |  |
| CCOC(=O)C1SC(=Nc2ccc(Cl)cc2)N=C1C (configuration not stated) | 35 | 38.1 | 43.3 | 30.8 | 38.5 | 31.3 | 36.2 | 35.2 |  |  |  |  |  |  |  |  |  |  |  |  |
| O=C1CCCCN1CCCCC#Cc1cccc(C#Cc2cccnc2)c1 | 27.2 | 60.6 | > 100 | 40 |  | 28.5 | 31.4 | 22 | 36.3 | > 100 | 13 | 18.4 | 11.9 |  | 14.1 | 30.9 | 15.2 | 7.05 | 14.3 | 14.7 |
| O=C(O)[C@H](c1ccccc1)[C@@H](C(=O)O)c1ccccc1 | > 100 | > 100 | > 100 | > 100 | > 100 | > 100 | > 100 | > 100 | > 100 |  |  |  |  |  |  |  |  |  |  |  |
| CCCCCCCCCCCCCCCC[N+]1(C)CCOCC1 |  | 12.2 |  | 3 |  | 8.92 | 3.15 | 2.34 |  | 3.02 |  | 2.79 | 0.766 |  | 2.6 | 1.09 | 1.34 | 1.06 |  |  |
| Nc1ncnc2c1ncn2CC(O)CO (configuration not stated) | > 100 | > 100 | > 100 | > 100 | > 100 | > 100 |  |  | > 100 | > 100 |  |  |  |  |  |  |  |  |  |  |
| Cc1ccccc1C(=O)N1CCN(C(=O)c2ccccc2C)CC1 | > 100 | > 100 | > 100 | > 100 |  | > 100 | > 100 | > 100 | > 100 | > 100 |  |  |  |  |  |  |  |  |  |  |
| N#CNC(N)=Nc1ccc(Cl)cc1 | > 100 | > 100 | > 100 | > 100 | > 100 | > 100 | > 100 | > 100 | > 100 |  |  |  |  |  |  |  |  |  |  |  |
| CCOC(=O)NC(=O)c1cn(CCN2CCN(C(=O)CCCCCCCCCCC(=O)N3CCN(CCn4cc(C(=O)NC(=O)OCC)c(=O)[nH]c4=O)CC3)CC2)c(=O)[nH]c1=O | > 100 | > 100 | > 100 | > 100 |  | > 100 | > 100 | > 100 | > 100 | > 100 |  |  |  |  |  |  |  |  |  |  |
| CSC(=NCCc1c[nH]c2ccccc12)NC#N | > 100 | > 100 | > 100 | > 100 |  | > 100 | > 100 | > 100 | > 100 | > 100 |  |  |  |  |  |  |  |  |  |  |
| CC(C)(C)OC(=O)NCCCCCCCn1c2c(c3ccccc3c1=O)C(=O)c1ccccc1-2 | > 100 | > 100 | > 100 | > 100 | > 100 | > 100 |  | 89.5 | 27.6 | > 100 | 32.5 | 31.8 | 37.6 | 36.6 | 73.7 | 76.1 |  | 28.9 | 9.84 | 42.7 |
| N/N=C1\C(=O)N(CCc2ccccc2)C(=O)C1C(=O)NCCc1ccccc1 (configuration not stated) | > 100 | > 100 | > 100 | > 100 | > 100 | > 100 |  | > 100 |  | > 100 |  |  |  |  |  |  |  |  |  |  |
| O=C(N[C@@H](C[Se][Se]C[C@H](NC(=O)c1ccc(Br)cc1F)C(=O)O)C(=O)O)c1ccc(Br)cc1F | > 100 | > 100 | > 100 | > 100 |  | > 100 | > 100 | > 100 | > 100 | > 100 | > 100 | > 100 | > 100 |  | > 100 | > 100 | > 100 | > 100 | > 100 | > 100 |
